Reference: ChEMBL document CHEMBL1141139 (J Med Chem, 2005)

Columns and labels:
[1] = Lethal dose against rodents; Range = 12-120 nmol/kg; assay type: toxicity; conditions: rodentia, in vivo
[2] = target: T1, Neuronal acetylcholine receptor; alpha3/beta4 (Rattus norvegicus, UniProt P04757+P12392); assay: Effective concentration against alpha3-beta4 nicotinic acetylcholine receptor (nAChR) expressed in Xenopus oocytes; assay type: cell-based, Oocyte
[3] = target: Neuronal acetylcholine receptor; alpha4/beta2 (Rattus norvegicus, UniProt P09483+P12390); assay: Displacement of [3H]-cytisine from Alpha4-beta2 Nicotinic acetylcholine receptor of rat brain homogenates; assay type: tissue-based
Chain of Neuronal acetylcholine receptor; alpha4/beta2 (P09483 whole entry): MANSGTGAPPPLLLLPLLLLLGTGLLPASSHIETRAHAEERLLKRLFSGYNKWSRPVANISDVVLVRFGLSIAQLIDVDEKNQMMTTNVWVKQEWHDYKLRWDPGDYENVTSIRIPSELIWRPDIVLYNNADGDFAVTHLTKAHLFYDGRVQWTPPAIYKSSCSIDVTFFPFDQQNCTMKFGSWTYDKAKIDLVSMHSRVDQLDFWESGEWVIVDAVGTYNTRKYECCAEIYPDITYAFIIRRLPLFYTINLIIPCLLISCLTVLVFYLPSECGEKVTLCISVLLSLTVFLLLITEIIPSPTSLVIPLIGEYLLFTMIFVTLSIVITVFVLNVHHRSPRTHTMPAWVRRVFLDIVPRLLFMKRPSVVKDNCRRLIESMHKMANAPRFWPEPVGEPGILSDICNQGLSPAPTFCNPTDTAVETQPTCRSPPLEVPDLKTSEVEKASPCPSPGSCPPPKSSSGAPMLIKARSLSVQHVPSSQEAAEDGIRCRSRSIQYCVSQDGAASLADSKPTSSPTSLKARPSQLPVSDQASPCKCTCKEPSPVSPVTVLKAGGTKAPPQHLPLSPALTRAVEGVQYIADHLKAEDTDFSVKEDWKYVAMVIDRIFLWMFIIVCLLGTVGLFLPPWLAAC
Chain of Neuronal acetylcholine receptor; alpha4/beta2 (P12390 whole entry): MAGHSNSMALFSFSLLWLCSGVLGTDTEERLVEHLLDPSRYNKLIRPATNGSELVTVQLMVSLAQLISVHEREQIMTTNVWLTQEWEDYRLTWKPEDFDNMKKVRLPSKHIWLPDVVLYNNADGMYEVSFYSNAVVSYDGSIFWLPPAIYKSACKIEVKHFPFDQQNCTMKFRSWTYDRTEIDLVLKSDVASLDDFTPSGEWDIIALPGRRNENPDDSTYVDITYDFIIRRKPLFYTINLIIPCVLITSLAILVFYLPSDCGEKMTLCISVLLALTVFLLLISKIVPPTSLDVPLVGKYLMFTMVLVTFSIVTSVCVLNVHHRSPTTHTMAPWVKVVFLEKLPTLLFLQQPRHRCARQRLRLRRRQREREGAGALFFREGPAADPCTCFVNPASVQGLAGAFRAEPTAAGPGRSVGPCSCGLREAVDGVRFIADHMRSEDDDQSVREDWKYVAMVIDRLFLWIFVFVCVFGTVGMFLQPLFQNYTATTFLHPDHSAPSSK

[4] = Lethal dose against rodents; Range = 7-67 nmol/kg; assay type: toxicity; conditions: rodentia, in vivo
[5] = Lethal dose against rodents; Range = 1.38e7 nmol/kg; assay type: toxicity; conditions: rodentia
[6] = Lethal dose against rodents; Range = 1200-10e4 nmol/kg; assay type: toxicity; conditions: rodentia
[7] = target: T1, Neuronal acetylcholine receptor; alpha3/beta4; assay: Effective concentration against alpha3-beta4 nicotinic acetylcholine receptor (nAChR) expressed in IMR32 cell; assay type: cell-based, IMR-32
[8] = Lethal dose against rodents; Range = 1.37e5 nmol/kg; assay type: toxicity; conditions: rodentia
[9] = target: T1, Neuronal acetylcholine receptor; alpha3/beta4; assay: Effective concentration against alpha3-beta4 Nicotinic acetylcholine receptor (nAChR); assay type: protein-complex assay
[10] = target: T1, Neuronal acetylcholine receptor; alpha3/beta4; assay: Displacement of [3H]epibatidine from Alpha3 Beta4 Nicotinic acetylcholine receptor of rat brain homogenates
[11] = Lethal dose against rodents; Range = 1200-10e4; assay type: toxicity; conditions: rodentia
[12] = Lethal dose against rodents; assay type: toxicity; conditions: rodentia

T1 sequence (P04757 whole entry): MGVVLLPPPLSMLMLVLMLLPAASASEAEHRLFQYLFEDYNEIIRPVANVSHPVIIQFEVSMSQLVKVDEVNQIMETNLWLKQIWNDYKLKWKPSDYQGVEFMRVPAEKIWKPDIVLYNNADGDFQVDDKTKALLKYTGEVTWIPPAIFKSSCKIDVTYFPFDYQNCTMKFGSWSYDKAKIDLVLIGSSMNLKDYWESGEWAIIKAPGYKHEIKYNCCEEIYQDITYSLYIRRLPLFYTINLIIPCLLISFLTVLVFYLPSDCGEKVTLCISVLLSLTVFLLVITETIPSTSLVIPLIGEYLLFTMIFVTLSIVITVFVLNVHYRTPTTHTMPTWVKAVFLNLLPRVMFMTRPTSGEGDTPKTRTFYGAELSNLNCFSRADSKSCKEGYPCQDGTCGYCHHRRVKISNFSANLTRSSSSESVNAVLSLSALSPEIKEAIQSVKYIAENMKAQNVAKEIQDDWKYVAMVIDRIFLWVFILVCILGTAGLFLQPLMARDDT
T1 sequence (P12392 whole entry): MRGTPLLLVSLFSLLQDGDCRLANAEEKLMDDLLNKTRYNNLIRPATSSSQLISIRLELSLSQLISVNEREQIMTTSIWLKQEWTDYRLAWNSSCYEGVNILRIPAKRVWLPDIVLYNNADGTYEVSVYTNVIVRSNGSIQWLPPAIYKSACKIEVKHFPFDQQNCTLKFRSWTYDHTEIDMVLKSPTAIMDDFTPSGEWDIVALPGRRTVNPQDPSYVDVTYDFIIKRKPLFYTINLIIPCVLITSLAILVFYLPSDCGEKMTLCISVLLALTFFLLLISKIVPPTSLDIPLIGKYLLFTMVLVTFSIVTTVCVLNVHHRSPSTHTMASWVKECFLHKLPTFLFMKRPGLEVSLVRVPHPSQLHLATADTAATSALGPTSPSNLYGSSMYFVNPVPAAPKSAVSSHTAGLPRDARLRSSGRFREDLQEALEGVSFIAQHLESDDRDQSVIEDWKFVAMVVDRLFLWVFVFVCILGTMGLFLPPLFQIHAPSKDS

c1cncc(C2CC3CCC2N3)c1 (single isomer, unassigned; (+)) [DESCHLOROEPIBATIDINE]
LD50 ([1]; read-out: LD50): 0.12 µmol/kg | EC50 [2]: 510 nM | Ki [3]: 0.064 nM

Clc1ccc([C@@H]2C[C@H]3CC[C@@H]2N3)cn1 [(+)-EPIBATIDINE]
LD50 [4]: 0.067 µmol/kg

CN1CCCC1COc1ccccn1 (configuration not stated)
Ki [3]: 495 nM

c1cncc(C2CC3CCC2N3)c1 (single isomer, unassigned; (-)) [DESCHLOROEPIBATIDINE]
LD50 [1]: 0.12 µmol/kg | EC50 [2]: 250 nM | Ki [3]: 0.015 nM

CC(=O)OCC[N+](C)(C)C [ACETYLCHOLINE]
LD50 [5]: 13800 µmol/kg

CN1CCCC1COc1ccc(Cl)nn1 (configuration not stated)
Ki [3]: 29 nM

CN1CCCC1COc1cnccn1 (configuration not stated)
Ki [3]: 16.3 nM

Clc1ccc(C2CC3CCC2N3)cn1 (configuration not stated) [EPIBATIDINE]
LD50 [4]: 0.067 µmol/kg

CN1CCCC1COc1cccnc1 (configuration not stated)
LD50 [6]: 100 µmol/kg | EC50 [7]: 63000 nM | Ki [3]: 0.15 nM

Cc1cc([C@@H]2CCCN2C)on1 [ABT-418]
LD50 [8]: 137 µmol/kg | EC50 [9]: 209000 nM | Ki [3]: 4 nM

c1cncc(OCC2CCN2)c1 (configuration not stated)
Ki [10]: 73.6 nM | Ki [3]: 0.05 nM | LD50 [11]: 100 µmol/kg

CN1C2C=C(c3cccnc3)CC1CC2 (configuration not stated)
LD50 [12]: 0.25 µmol/kg
